The OligoGym collection
HELM strings list units from the 5' end as sugar, base in round brackets, then linkage (d deoxyribose, r ribose, m 2'-O-methyl, p phosphodiester). Strings are as the collection lists them; they lack the last nucleoside at the 3' end of the tested compound. [moe] = 2'-O-(2-methoxyethyl) (MOE); [sp] = phosphorothioate linkage; [m5C] = 5-methylcytosine

target: SCN2A; test: mouse, dose not given; details: ASO

| Substance | 3 h FOB score [score 0-7] |
| --- | --- |
| RNA1{[moe](A)[sp].[moe](A)p.[moe](G)p.[moe](T)p.[moe](A)p.d(G)[sp].d(T)[sp].d(A)[sp].d([m5C])[sp].d([m5C])[sp].d(A)[sp].d(T)[sp].d(T)[sp].d([m5C])[sp].d([m5C])[sp].[moe]([m5C])p.[moe](A)p.[moe](T)[sp].[moe]([m5C])}$$$$ (last 3' nucleoside missing) | 0 |
| RNA1{[moe](A)[sp].[moe](A)p.[moe](T)p.[moe](T)p.[moe]([m5C])p.[moe](T)p.d(A)[sp].d(T)[sp].d(T)[sp].d(T)[sp].d(T)[sp].d(A)[sp].d(T)[sp].d(A)[sp].d(A)[sp].d(A)[sp].[moe](T)p.[moe](G)[sp].[moe]([m5C])}$$$$ (last 3' nucleoside missing) | 0.33 |
| RNA1{[moe](A)[sp].[moe](A)p.[moe](T)p.[moe](T)p.[moe]([m5C])p.d(T)[sp].d(A)[sp].d(T)[sp].d(T)[sp].d(T)[sp].d(T)[sp].d(A)[sp].d(T)[sp].d(A)[sp].d(A)[sp].[moe](A)p.[moe](T)p.[moe](G)[sp].[moe]([m5C])}$$$$ (last 3' nucleoside missing) | 0 |
| RNA1{[moe](A)[sp].[moe](A)p.[moe](T)p.[moe](T)p.d([m5C])[sp].d(T)[sp].d(A)[sp].d(T)[sp].d(T)[sp].d(T)[sp].d(T)[sp].d(A)[sp].d(T)[sp].d(A)[sp].[moe](A)p.[moe](A)p.[moe](T)p.[moe](G)[sp].[moe]([m5C])}$$$$ (last 3' nucleoside missing) | 0 |
| RNA1{[moe](A)[sp].[moe](A)p.[moe](T)p.[moe]([m5C])p.[moe](A)p.[moe]([m5C])p.d(T)[sp].d(T)[sp].d(T)[sp].d([m5C])[sp].d(A)[sp].d(T)[sp].d([m5C])[sp].d([m5C])[sp].d(A)[sp].d([m5C])[sp].[moe](G)p.[moe](A)[sp].[moe]([m5C])}$$$$ (last 3' nucleoside missing) | 0 |
| RNA1{[moe](A)[sp].[moe](A)p.[moe](T)p.[moe]([m5C])p.[moe](A)p.d([m5C])[sp].d(T)[sp].d(T)[sp].d(T)[sp].d([m5C])[sp].d(A)[sp].d(T)[sp].d([m5C])[sp].d([m5C])[sp].d(A)[sp].[moe]([m5C])p.[moe](G)p.[moe](A)[sp].[moe]([m5C])}$$$$ (last 3' nucleoside missing) | 0 |
| RNA1{[moe](A)[sp].[moe](A)p.[moe](T)p.[moe]([m5C])p.d(A)[sp].d([m5C])[sp].d(T)[sp].d(T)[sp].d(T)[sp].d([m5C])[sp].d(A)[sp].d(T)[sp].d([m5C])[sp].d([m5C])[sp].[moe](A)p.[moe]([m5C])p.[moe](G)p.[moe](A)[sp].[moe]([m5C])}$$$$ (last 3' nucleoside missing) | 0.33 |
| RNA1{[moe](A)[sp].[moe](G)p.[moe](T)p.[moe](T)p.d(T)[sp].d(T)[sp].d(T)[sp].d(T)[sp].d([m5C])[sp].d(A)[sp].d(T)[sp].d(T)[sp].d(G)[sp].d([m5C])[sp].[moe](A)p.[moe](T)p.[moe]([m5C])p.[moe]([m5C])[sp].[moe](T)}$$$$ (last 3' nucleoside missing) | 3 |
| RNA1{[moe](A)[sp].[moe](G)p.[moe]([m5C])p.[moe](A)p.[moe](T)p.[moe](G)p.d(T)[sp].d(T)[sp].d(T)[sp].d(A)[sp].d(T)[sp].d([m5C])[sp].d(T)[sp].d(T)[sp].d(A)[sp].d(G)[sp].[moe](T)p.[moe](T)[sp].[moe]([m5C])}$$$$ (last 3' nucleoside missing) | 1 |
| RNA1{[moe](A)[sp].[moe](G)p.[moe]([m5C])p.[moe](A)p.[moe](T)p.d(G)[sp].d(T)[sp].d(T)[sp].d(T)[sp].d(A)[sp].d(T)[sp].d([m5C])[sp].d(T)[sp].d(T)[sp].d(A)[sp].[moe](G)p.[moe](T)p.[moe](T)[sp].[moe]([m5C])}$$$$ (last 3' nucleoside missing) | 0 |
